In ChEMBL document CHEMBL1157603, “Structural insights into the design of small molecule inhibitors that selectively antagonize Mcl-1” (J Med Chem, 2010) one finds Kd and Ki data, which are given here for three molecules.

Where only a bound is given, the exact number is not on record here.

In assay [1] the target is T1, Bcl-2-like protein 1 (Homo sapiens, UniProt Q07817). Kind of assay: Binding affinity to human Bcl-XL by isothermal titration calorimetry. In general terms: In ITC the heat of successive injections is recorded.
T1 sequence (Q07817 whole entry): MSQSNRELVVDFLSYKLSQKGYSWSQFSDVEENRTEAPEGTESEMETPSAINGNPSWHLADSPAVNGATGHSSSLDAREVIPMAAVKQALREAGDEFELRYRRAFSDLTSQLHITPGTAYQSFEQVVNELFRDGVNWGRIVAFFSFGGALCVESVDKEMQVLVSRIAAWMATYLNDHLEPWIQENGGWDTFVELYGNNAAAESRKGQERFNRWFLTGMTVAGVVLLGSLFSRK
Assay [2] addresses T1, Bcl-2-like protein 1. Nature of the assay: Displacement of fluorescein-labeled Bak-BH3 peptide from human Bcl-XL by fluorescence polarization assay.
Assay [3] concerns the target T2, Induced myeloid leukemia cell differentiation protein Mcl-1 (Homo sapiens, UniProt Q07820). Kind of assay: Binding affinity to human Mcl1 by isothermal titration calorimetry.
Assay [4] addresses T2, Induced myeloid leukemia cell differentiation protein Mcl-1. Nature of the assay: Displacement of fluorescein-labeled Bak-BH3 peptide from human Mcl1 by fluorescence polarization assay.

T2 sequence (Q07820 whole entry): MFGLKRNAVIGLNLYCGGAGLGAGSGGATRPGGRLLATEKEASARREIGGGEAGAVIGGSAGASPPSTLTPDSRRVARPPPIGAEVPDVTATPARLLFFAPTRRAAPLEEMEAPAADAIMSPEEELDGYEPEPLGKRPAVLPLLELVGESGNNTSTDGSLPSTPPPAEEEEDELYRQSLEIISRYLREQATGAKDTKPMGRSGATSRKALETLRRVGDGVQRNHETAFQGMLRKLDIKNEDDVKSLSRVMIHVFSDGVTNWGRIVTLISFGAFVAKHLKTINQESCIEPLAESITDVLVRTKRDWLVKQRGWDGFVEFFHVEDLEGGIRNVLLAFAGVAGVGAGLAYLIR

`COc1ccc(-c2ccc(/C=C3\SC(=S)N([C@@H](Cc4ccccc4)C(=O)O)C3=O)cn2)cc1OC`: the Kd on Bcl-2-like protein 1 [1] was greater than 750 µM; in assay [3], 10 µM. Also, the figures for the Ki (at Bcl-2-like protein 1 [2]; in assay [4]) were greater than 100 µM and 8 µM, respectively.
For `CC(C)C(C(=O)O)N1C(=O)/C(=C/c2ccc(Br)cc2)SC1=S` (configuration not stated) the same measures were 8.7 µM, 84 µM, 10 µM and 44 µM.
Regarding `COc1cccc(-c2ccc(/C=C3\SC(=S)N([C@@H](Cc4ccccc4)C(=O)O)C3=O)cn2)c1OC`, the Kd was 3.4 µM on Bcl-2-like protein 1 [1] and 0.25 µM in assay [3]. In addition, the figures for the Ki (on Bcl-2-like protein 1 [2]; in assay [4]) were 3.7 µM and 6.9 µM, respectively.

What is called Kd is a measure of binding affinity in units of concentration. Lower therefore signals higher affinity. The Ki is the dissociation constant of the complex between target and ligand, obtained from inhibition or displacement. A lower Ki goes with a stronger hold on the target.
